Molecular target: T1, Zinc finger protein 346 (ZNF346) (Homo sapiens, UniProt Q9UL40)
T1 construct: 1,522 proteins were enriched from MCF7 cells by 10 μM probe 24c; endogenous in cells; host or cells: MCF7
Experiment: SILAC competitive profiling with probe 24c in MCF7 lysates: ZNF346
Assay type: binding
Settings: 1 h, then 10 µM 24c
Text: In our efforts to determine the direct molecular targets of deoxyelephantopin we first performed a gel-based competitive in situ proteomic profiling assay[41] […] While the greater conformational flexibility of probe 24c could potentially lead to more promiscuous target engagement relatively to deoxyelephantopin, it was favoured based on the fact that an alkyne moiety appended to the rigid scaffold of deoxyelephantopin may hinder some of its interactions. MCF7 cells were pretreated with various concentrations of deoxyelephantopin for 4 h, harvested, lysed and the lysates were treated with the fluorogenic probe 24c-Cy3 (10 μM; Supplementary Fig. 10). […] Furthermore, cells were pretreated with 20 μM concentration of deoxyelephantopin or 24c and the proteomic profiles were compared (Fig. 6b, Supplementary Fig. 11). Multiple bands were detected that were equally competed by both DEP and 24c, thus again confirming that 24c can be used as an acceptable clickable analogue of deoxyelephantopin in pulldown assays. Having established the optimal labelling conditions by SDS–PAGE, we next carried out a mass spectrometry-based competitive profiling assay[42] coupled with the method of stable isotope labelling of amino acids in culture (SILAC)[43]. […]
visualization were performed as described above. Images were quantified with ImageJ and kinetics values were calculated using GraphPad Prism (V6.03). […]

T1 sequence (Q9UL40 whole entry): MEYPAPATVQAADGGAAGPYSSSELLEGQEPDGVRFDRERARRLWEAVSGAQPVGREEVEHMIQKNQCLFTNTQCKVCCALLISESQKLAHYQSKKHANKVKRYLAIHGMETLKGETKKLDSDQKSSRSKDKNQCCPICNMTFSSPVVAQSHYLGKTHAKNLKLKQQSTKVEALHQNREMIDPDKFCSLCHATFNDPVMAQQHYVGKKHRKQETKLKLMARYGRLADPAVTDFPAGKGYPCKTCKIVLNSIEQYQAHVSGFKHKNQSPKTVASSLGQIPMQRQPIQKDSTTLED

## C=C(C)C(=O)O[C@H]1CC2=C[C@@H](C/C(C)=C/[C@H]3OC(=O)C(=C)[C@H]13)OC2=O [deoxyelephantopin]
  SILAC ratio 20 µM Deoxyelephantopin/DMSO with 24c: 0.22

— article PMC4992173, “Divergent synthesis and identification of the cellular targets of deoxyelephantopins” (Nature Communications, 2016)
